Assay results from patent US20230121086A1, “RORgT INHIBITOR, PREPARATION METHOD THEREOF AND USE THEREOF” (SUNSHINE LAKE PHARMA CO., LTD., priority 2020, published 2023).

molecular target: T1, RORγt (Homo sapiens, UniProt P51449); assay: Fluorescence resonance energy transfer (FRET) test, inhibitory activity of RORγt; type: biochemical; conditions: FRET, B-RORγt LBD / Biotin-SRC1; read-out: IC50
T1 construct: […]
T1 sequence (P51449 269-508 limits assumed): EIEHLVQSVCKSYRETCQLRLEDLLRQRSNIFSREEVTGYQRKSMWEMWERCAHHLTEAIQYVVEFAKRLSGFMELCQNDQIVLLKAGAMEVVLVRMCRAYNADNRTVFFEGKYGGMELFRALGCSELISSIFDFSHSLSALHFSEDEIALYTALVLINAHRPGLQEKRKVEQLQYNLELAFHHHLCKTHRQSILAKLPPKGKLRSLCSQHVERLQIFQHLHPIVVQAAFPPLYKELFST

| SMILES | IC50 [nM] |
| --- | --- |
| CS(=O)(=O)c1ccc([C@H](CC#N)NC(=O)c2ccc(N3C[C@@H](Oc4ccc(C(F)(F)F)cc4)C[C@H]3COC(F)F)cc2)cc1 [Example 62, N-((S)-2-cyano-1-(4-(methylsulfonyl)phenyl)ethyl)-4-((2S,4S)-2-((difluoromethoxy)methyl)-4-(4-(trifluoromethyl)phenoxy)pyrrolidin-1-yl)benzamide] | 22 |
| CCS(=O)(=O)c1ccc([C@H](CC#N)NC(=O)c2ccc(N3C[C@@H](Oc4ccc(C(F)(F)F)cc4)C[C@H]3COC(F)F)c(Cl)c2)cc1 [Example 66, 3-chloro-N-((S)-2-cyano-1-(4-(ethylsulfonyl)phenyl)ethyl)-4-((2S,4S)-2-((difluoromethoxy)methyl)-4-(4-(trifluoromethyl)phenoxy)pyrrolidin-1-yl)benzamide] | 33 |
| CCS(=O)(=O)c1ccc([C@H](CC#N)NC(=O)c2ccc(N3C[C@@H](Oc4ccc(C(F)(F)F)cc4)C[C@H]3CCOC(F)F)cc2)cc1 [Example 75, N—((S)-2-cyano-1-(4-(ethylsulfonyl)phenyl)ethyl)-4-((2R,4S)-2-(2-(difluoromethoxy)ethyl)-4-(4-(trifluoromethyl)phenoxy)pyrrolidin-1-yl)benzamide] | 10 |
| CCS(=O)(=O)c1ccc([C@H](CC#N)NC(=O)c2ccc(N3C[C@@H](Oc4ccc(C(F)(F)F)cc4)C[C@H]3CCOC(F)(F)F)cc2)cc1 [Example 76, N—((S)-2-cyano-1-(4-(ethylsulfonyl)phenyl)ethyl)-4-((2R,4S)-2-(2-(trifluoromethoxy)ethyl)-4-(4-(trifluoromethyl)phenoxy)pyrrolidin-1-yl)benzamide] | 18 |
| CCOC[C@@H]1C[C@H](Oc2ccc(C(F)(F)F)cc2)CN1c1ccc(C(=O)N[C@H](CC#N)c2ccc(S(=O)(=O)CC)cc2)cc1 [Example 77, N—((R)-2-cyano-1-(4-(ethylsulfonyl)phenyl)ethyl)-4-((2S,4S)-2-(ethoxymethyl)-4-(4-(trifluoromethyl)phenoxy)-1-pyrrolidine)benzamide] | 7 |
| CCS(=O)(=O)c1ccc([C@H](CC#N)NC(=O)c2ccc(N3C[C@@H](Oc4ccc5c(c4)OC(F)(F)O5)C[C@H]3COC(F)F)cc2)cc1 [Example 78, N—((S)-2-cyano-1-(4-(ethylsulfonyl)phenyl)ethyl)-4-((2S,4S)-4-((2,2-difluorobenzo[d][1,3]dioxol-5-yl)oxy)-2-((difluoromethoxy)methyl)pyrrolidin-1-yl)-benzamide] | 12 |
| CCS(=O)(=O)c1ccc([C@H](CC#N)NC(=O)c2ccc(N3C[C@@H](OC4CCC(C(F)(F)F)CC4)C[C@H]3COC(F)F)cc2)cc1 (stereo partly drawn) [Example 89, N—((S)-2-cyano-1-(4-(ethylsulfonyl)phenyl)ethyl)-4-((2S)-2-((difluoromethoxy)methyl)-4-((4-(trifluoromethyl)cyclohexyl)oxy)pyrrolidin-1-yl)benzamide] | 14 |
| CCS(=O)(=O)c1ccc([C@H](COCC(=O)O)NC(=O)c2ccc(N3C[C@@H](Oc4ccc(C(F)(F)F)cc4)C[C@H]3COC(F)F)cc2)cc1 [Example 90, 2-((R)-2-(4-((2S,4S)-2-((difluoromethoxy)methyl)-4-(4-(trifluoromethyl)phenoxy)pyrrolidin-1-yl)benzoylamino)-2-(4-(ethylsulfonyl)phenyl)ethoxy)acetic Acid] | 9 |
| CCS(=O)(=O)c1ccc([C@H](CC(=O)O)NC(=O)c2ccc(N3C[C@@H](Oc4ccc(C(F)(F)F)cc4)C[C@H]3COC(F)F)cc2)cc1 [Example 92, (S)-3-(4-((2S,4S)-2-((difluoromethoxy)methyl)-4-(4-(trifluoromethyl)phenoxy)pyrrolidin-1-yl)benzoylamino)-3-(4-(ethylsulfonyl)phenyl)propionic Acid] | 21 |
| CCS(=O)(=O)c1ccc([C@H](CC(=O)NO)NC(=O)c2ccc(N3C[C@@H](Oc4ccc(C(F)(F)F)cc4)C[C@H]3COC(F)F)cc2)cc1 [Example 93] | 13 |
| CCS(=O)(=O)c1ccc([C@H](CC(=O)NC)NC(=O)c2ccc(N3C[C@@H](Oc4ccc(C(F)(F)F)cc4)C[C@H]3COC(F)F)cc2)cc1 [Example 94] | 31 |
